Patent US20200325178A1, “PEPTIDE NUCLEIC ACID MOLECULES FOR TREATMENT OF GRAM POSITIVE BACTERIAL INFECTION” (priority 2017, published 2020)

Legend:
[1] = tested on: MRSA clinical isolates and ATCC strains; experiment: MIC and MBC against MRSA clinical isolates and ATCC strains; type: cell-based, Staphylococcus aureus; parameters: unit not given here
Description: (§1) Bioscreen-C instrument was used to detect the MIC and MBC of PNA-CPP derivatives against S. aureus MRSA strains. Different concentration of PNA-CPP derivatives were prepared in 10 mM of sodium bicarbonate buffer pH-7.4 and added to ˜5.0 Log 10 CFUs in a Honey comb Bioscreen-C plate.
After the growth curve assays, the number of colony forming units (CFU) were counted to determine the MIC and MBC of each PNA-CPP derivative against MRSA.
Minimum inhibitory concentration (MIC) analyses were performed as described in Clinical and Laboratory Standards Institute, Methods for Dilution Antimicrobial Susceptibility Tests for Bacteria that Grow Aerobically, 7th ed.; Approved Standard M7-A7; CLSI: Wayne, Pa., USA, 2006; volume 26, No. 2. […] MIC was determined as the lowest concentration of agent that inhibits bacterial growth detected at A420-580 nm.

S. aureus MSSA strains = experiment: Bioscreen-C dose response growth curve of MSSA over 24 hours; type: cell-based, Staphylococcus aureus; settings: HCl salts, doses from 100 μg downwards, 10 mM sodium bicarbonate buffer pH-7.4, OD 420-580 nm
Description: (§2) Bioscreen-C instrument was used to detect the MIC and MBC of PNA-CPP derivatives against S. aureus MSSA strains. Different concentrations of PNA-CPP derivatives were prepared in 10 mM of sodium bicarbonate buffer pH-7.4 and added to ˜5.0 Log 10 CFUs in a Honey comb Bioscreen-C plate.
Compound I-V were assayed against MSSA. FIG. 12-16 show a dose response growth curve of MSSA in presence of increasing concentrations of Compound I-HCl (FIG. 12), Compound II-HCl (FIG. 13), Compound III-HCl (FIG. 14), Compound IV-HCl (FIG. 15), and Compound V-HCl (FIG. 16), determined in a Bioscreen-C spectrophotometer.

[2] = tested on: MSSA clinical isolates and ATCC strains; experiment: MIC and MBC against MSSA clinical isolates and ATCC strains; type: cell-based, Staphylococcus aureus; parameters: MIC: unit not given here
Description: as §2
After the growth curve assays, the number of colony forming units (CFU) were counted to determine the MIC and MBC of each PNA-CPP derivative against MSSA.
Minimum inhibitory concentration (MIC) analyses were performed as described in Clinical and Laboratory Standards Institute, Methods for Dilution Antimicrobial Susceptibility Tests for Bacteria that Grow Aerobically, 7th ed.; Approved Standard M7-A7; CLSI: Wayne, Pa., USA, 2006; volume 26, No. 2. Vancomycin and Oxacillin were used as controls. MIC was determined as the lowest concentration of agent that inhibits bacterial growth detected at A420-580 nm.

S. aureus MRSA strains = experiment: Bioscreen-C dose response growth curve of MRSA over 24 hours; type: cell-based, Staphylococcus aureus; settings: HCl salts, doses from 100 μg downwards, 10 mM sodium bicarbonate buffer pH-7.4, OD 420-580 nm
Description: as §1
Compound I-V were assayed against MRSA. FIG. 6-10 show a dose response growth curve of MRSA in presence of increasing concentrations of Compound I-HCl (FIG. 6), Compound II-HCl (FIG. 7), Compound III-HCl (FIG. 8), Compound IV-HCl (FIG. 9), and Compound V-HCl (FIG. 10), determined in a Bioscreen-C spectrophotometer.

[3] = tested on: S. aureus (ATCC BAA-1556); experiment: Murine thigh infection model; type: in vivo; settings: neutropenic CD-1 mice; 25 mg/kg, 0.2 ml SC, +1 hr; 24 hrs
Description: Female 5-6 week old CD-1 (18-22 gm) were used in this study. Mice were quarantined for 48 hours before use and housed in groups of 5 with free access to food and water during the study.
The animals were made neutropenic by administration of cyclophosphamide on Days −4 and −1. On Days −4 150 mg/kg of cyclohsphamide administered by intraperitoneal route and 100 mg/kg was administered on Days −1. Days listed are referenced from the date of infection (study day-Day 0).
On Day 0, animals were inoculated intramuscularly (0.1 ml/thigh) with ˜1×10^5 CFU/mouse of S. aureus (ATCC BAA-1556) into right thigh. […] Group-3 of mice were administered with vancomycin at 25 mg/kg via subcutaneous route. Group-4 of mice administered with buffer and group-5 used as the inoculation control.
Mice were euthanized by CO2 inhalation and thighs were removed, and placed in 2 ml of sterile PBS, homogenized, serially diluted and plated to determine the CFU counts. Plates were incubated 18-24 hours and CFUs were counted.
Colony were counted and the number of colonies is converted to CFU/thigh by multiplying the number of colonies by the volume of the thigh homogenate spotted and the dilution at which the colonies were counted (5-50 colonies/spot). All count data were transformed into logo CFU/thigh for calculation of means and standard deviations.

MRSA = experiment: In vitro assay of emergence of resistance, MRSA, 8 days; type: cell-based, S. aureus; settings: 6.25 μg (twice MBC) in one ml Mueller Hinton broth, 37° C., through Day 8
Description: (§3) To determine the development of resistance in MRSA and MSSA strains against Compound I-HCl and Compound IV-HCl, an in vitro assay was performed. Twice the amount of MBC of Compound I-HCl (6.25 μg) and Compound IV-HCl (6.25 μg) were mixed with ˜5.0 log 10 CFUs in one ml of Mueller Hinton broth and incubated for 8 days at 37° C. Eight tubes of culture were used for each drug and bacterial strains. At 24 hours of interval, culture tubes were centrifuged and spent media were replaced with fresh media in presence of Compound I-HCl and Compound IV-HCl and further incubated to observe the growth of S. aureus strains. At 24 hours interval, one set of culture tube exposed to drugs were selected and a fraction of the culture used to plate on agar plates to observe the reduction of CFU counts as compared to untreated control. The rest of the culture samples were allowed to grow without any drug for additional 24 hours to observe the growth of S. aureus strains. One set of culture tubes without drug was used as the positive control.

MSSA = experiment: In vitro assay of emergence of resistance, MSSA, 8 days; type: cell-based, S. aureus; settings: 6.25 μg (twice MBC) in one ml Mueller Hinton broth, 37° C., through Day 8
Description: as §3
The assays above were also performed using MSSA strains and Compounds I and IV.

[4] = Single ascending intravenous dose tolerability (MTD) in mice; type: in vivo; settings: 10 mg/kg single intravenous bolus dose
Description: Single ascending intravenous (IV) dose study was performed to determine tolerability of the drug in mice.
Initially, Compound I-HCl and Compound IV-HCl were administered with a 10 mg/kg intravenous bolus dose using a 10 mL/kg dose volume (0.2 mL) and observed the effects before proceeding to the next higher dose. […] However, higher concentration (>15 mg/kg) had shown adverse effect and death in mice within 30 mins of administration of the drug.

[5] = MSSA table, isolate MRSA#16 [sic]
[6] = MSSA table, isolate MRSA#25 [sic]
[7] = MSSA table, isolate MRSA#27 [sic]
[8] = MSSA table, isolate MRSA#34 [sic]
[9] = MSSA table, isolate MRSA#38 [sic]
[10] = MSSA table, isolate MRSA#57 [sic]
[11] = MSSA table, isolate MRSA#60 [sic]
[12] = MSSA table, isolate printed MRSA#49
[13] = MSSA table, isolate printed MRSA#61

**Q.** Which results are given for “Compound II: PNA-CPP conjugate: PNA SEQ ID NO: 51, AEA linker, CPP BXRXRRXRRXRRXR; FIG. 2 (CGTCATACGCGGTCC; all peptide nucleic acid (PNA); PNA conjugated to cell-penetrating peptide BXRXRRXRRXRRXR via AEA linker, end not given here)”?
**A.** MBC ([1]; isolate MRSA#1): 3.25; MIC ([1]; isolate MRSA#1): 1.56; MBC ([1]; isolate MRSA#3): 3.25; MIC ([1]; isolate MRSA#3): 1.56; MBC ([1]; isolate MRSA#6): 3.25; MIC ([1]; isolate MRSA#6): 1.56; MBC ([1]; isolate MRSA#15): 3.25; MIC ([1]; isolate MRSA#15): 1.56; MBC ([1]; isolate MRSA#28): 3.25; MIC ([1]; isolate MRSA#28): 1.56; MBC ([1]; isolate MRSA#31): 3.25; MIC ([1]; isolate MRSA#31): 1.56; MBC ([1]; isolate MRSA#37): 1.56; MIC ([1]; isolate MRSA#37): 0.78; MBC ([1]; isolate MRSA#39): 3.25; MIC ([1]; isolate MRSA#39): 1.56; MBC ([1]; isolate MRSA#42): 1.56; MIC ([1]; isolate MRSA#42): 0.78; MBC ([1]; isolate MRSA#43): 1.56; MIC ([1]; isolate MRSA#43): 0.78; MBC ([1]; strain USA 300): 1.56; MIC ([1]; strain USA 300): 0.78; lowest dose at which no MSSA growth was observed (growth curve) (S. aureus MSSA strains): 6.25 µg; MBC [2, 5]: 3.25 ∞g; MIC [2, 5]: 1.56 ∞g; MBC [2, 6]: 3.25/3.25 ∞g; MIC [2, 6]: 3.25/3.25 ∞g; MBC [2, 7]: 1.56 ∞g; MIC [2, 7]: 0.78 ∞g; MBC [2, 8]: 3.25/3.25 ∞g; MIC [2, 8]: 3.25/3.25 ∞g; MBC [2, 9]: 3.25/3.25 ∞g; MIC [2, 9]: 3.25/3.25 ∞g; MBC ([2]; MSSA table, isolate MRSA#55): 3.25/3.25 ∞g; MIC ([2]; MSSA table, isolate MRSA#55): 3.25/3.25 ∞g; MBC [2, 10]: 3.25 ∞g; MIC [2, 10]: 1.56 ∞g; MBC [2, 11]: 1.56 ∞g; MIC [2, 11]: 0.78 ∞g; MBC [2, 12]: 3.25/3.25 ∞g; MIC [2, 12]: 3.25/3.25 ∞g; MBC [2, 13]: 1.56 ∞g; MIC [2, 13]: 0.78 ∞g; MBC ([2]; strain BAA 1721): 1.56 ∞g; MIC ([2]; strain BAA 1721): 0.78 ∞g

**Q.** Which results are given for “Compound III: PNA-CPP conjugate: PNA SEQ ID NO: 51, Glycine-Glycine linker, CPP BXRXRRXRRXRRXR; FIG. 3 (CGTCATACGCGGTCC; all peptide nucleic acid (PNA); PNA conjugated to cell-penetrating peptide via glycine-glycine linker, end not given here, further chemistry not fully specified)”?
**A.** lowest dose at which no MRSA growth was observed (growth curve) (S. aureus MRSA strains): 12.5 µg; lowest dose at which no MSSA growth was observed (growth curve) (S. aureus MSSA strains): 25 µg

**Q.** For `Cc1onc(-c2ccccc2)c1C(=O)N[C@@H]1C(=O)N2[C@@H]1SC(C)(C)[C@@H]2C(=O)O` [Oxacillin, reference compound], which MIC [2, 5] is on record?
**A.** 2 ∞g

**Q.** And the MIC [2, 6]?
**A.** 2 ∞g

**Q.** And the MIC [2, 7]?
**A.** 2 ∞g

**Q.** What about the MIC [2, 8] of the same molecule?
**A.** 2 ∞g

**Q.** What about the MIC [2, 9] of the same molecule?
**A.** 2 ∞g

**Q.** What about the MIC ([2]; MSSA table, isolate MRSA#55) of the same molecule?
**A.** 2 ∞g

**Q.** And the MIC [2, 10]?
**A.** 4 ∞g

**Q.** What about the MIC [2, 11] of the same molecule?
**A.** 2 ∞g

**Q.** What about the MIC [2, 12] of the same molecule?
**A.** 2 ∞g

**Q.** And the MIC [2, 13]?
**A.** 2 ∞g

**Q.** And the MIC ([2]; strain BAA 1721)?
**A.** <2 ∞g

**Q.** Which MIC [2, 5] does the source give for `CN[C@H](CC(C)C)C(=O)N[C@H]1C(=O)N[C@@H](CC(N)=O)C(=O)N[C@H]2C(=O)N[C@H]3C(=O)N[C@H](C(=O)N[C@H](C(=O)O)c4cc(O)cc(O)c4-c4cc3ccc4O)[C@H](O)c3ccc(c(Cl)c3)Oc3cc2cc(c3O[C@@H]2O[C@H](CO)[C@@H](O)[C@H](O)[C@H]2O[C@H]2C[C@](C)(N)[C@H](O)[C@H](C)O2)Oc2ccc(cc2Cl)[C@H]1O` [Vancomycin, reference compound] here?
**A.** 5 ∞g

**Q.** And the MIC [2, 6]?
**A.** 10 ∞g

**Q.** And the MIC [2, 7]?
**A.** 10 ∞g

**Q.** What about the MIC [2, 8] of the same molecule?
**A.** 5 ∞g

**Q.** And the MIC [2, 9]?
**A.** 10 ∞g

**Q.** What about the MIC ([2]; MSSA table, isolate MRSA#55) of the same molecule?
**A.** 10 ∞g

**Q.** What about the MIC [2, 10] of the same molecule?
**A.** 20 ∞g

**Q.** What about the MIC [2, 11] of the same molecule?
**A.** 10 ∞g

**Q.** And the MIC [2, 12]?
**A.** 10 ∞g

**Q.** What about the MIC [2, 13] of the same molecule?
**A.** 5 ∞g

**Q.** What about the MIC ([2]; strain BAA 1721) of the same molecule?
**A.** 10 ∞g

**Q.** And the “Mean Log 10 CFU/Thigh” value [3]?
**A.** 4.39 Log 10 CFU/Thigh

**Q.** And the “Mean Log 10 Change vs. 1 hr” value [3]?
**A.** −1.23 Log 10

**Q.** And the “Mean Log 10 Change vs. 24 hr (vehicle)” value [3]?
**A.** −4.14 Log 10

**Q.** Which “lowest dose at which no MSSA growth was observed (growth curve)” value (S. aureus MSSA strains) does the source give for “Compound V: PNA-CPP conjugate: PNA SEQ ID NO: 51, AEEA linker, D-arginine CPP BXdRXdRdRXdRdRXdRdRXdR; FIG. 5 (CGTCATACGCGGTCC; all peptide nucleic acid (PNA); PNA conjugated to D-arginine cell-penetrating peptide via AEEA linker, end not given here, further chemistry not fully specified)” here?
**A.** 25 µg

**Q.** Which results are given for “Compound IV: PNA-CPP conjugate: PNA SEQ ID NO: 51, AEEA linker, homo-arginine CPP BXhRXhRhRXhRhRXhRhRXhR; FIG. 4 (CGTCATACGCGGTCC; all peptide nucleic acid (PNA); homo-arginine cell-penetrating peptide attached via AEEA linker, further chemistry not fully specified)”?
**A.** lowest dose at which no MSSA growth was observed (growth curve) (S. aureus MSSA strains): 6.25 µg; MRSA CFU counts and emergence of resistant strains (MRSA): reduced MRSA CFUs without emergence of resistant strains; MSSA CFU counts and emergence of resistant strains (MSSA): reduced MSSA CFUs without emergence of resistant strains; tolerability in mice [4]: well tolerated
